HELM strings list units from the 5' end as sugar, base in round brackets, then linkage (d deoxyribose, r ribose, m 2'-O-methyl, p phosphodiester). Strings are as the collection lists them; they lack the last nucleoside at the 3' end of the tested compound. [moe] = 2'-O-(2-methoxyethyl) (MOE); [sp] = phosphorothioate linkage; [m5C] = 5-methylcytosine
Molecular target: ATXN3
Assay: mouse, dose not given
Details: ASO

Substance | 3 h FOB score [score 0-7]
RNA1{[moe](G)[sp].[moe]([m5C])p.[moe](T)p.[moe]([m5C])p.[moe](A)p.d(T)[sp].d(T)[sp].d(T)[sp].d(A)[sp].d(T)[sp].d(T)[sp].d([m5C])[sp].d(T)[sp].d([m5C])[sp].d(A)[sp].[moe](A)p.[moe](G)p.[moe](T)[sp].[moe](A)}$$$$ (last 3' nucleoside missing) | 1
RNA1{[moe](A)[sp].[moe](T)p.[moe](G)[sp].[moe](T)[sp].[moe](T)[sp].d(A)[sp].d(A)[sp].d(T)[sp].d(A)[sp].d([m5C])[sp].d(T)[sp].d(T)[sp].d(T)[sp].d(T)[sp].d(T)[sp].[moe]([m5C])[sp].[moe]([m5C])p.[moe](A)[sp].[moe](G)}$$$$ (last 3' nucleoside missing) | 0.25
RNA1{[moe](A)[sp].[moe]([m5C])p.[moe](T)p.[moe](G)p.[moe](G)[sp].d(T)[sp].d([m5C])[sp].d(A)[sp].d(G)[sp].d(T)[sp].d(T)[sp].d(T)[sp].d([m5C])[sp].d([m5C])[sp].d(T)[sp].[moe](A)p.[moe](A)p.[moe](T)[sp].[moe](T)}$$$$ (last 3' nucleoside missing) | 0
RNA1{[moe](T)[sp].[moe](G)p.[moe](A)[sp].[moe](G)[sp].[moe]([m5C])[sp].d([m5C])[sp].d(A)[sp].d(A)[sp].d(T)[sp].d(A)[sp].d(T)[sp].d(T)[sp].d(T)[sp].d(A)[sp].d(T)[sp].[moe](A)[sp].[moe](G)p.[moe](G)[sp].[moe](T)}$$$$ (last 3' nucleoside missing) | 4
RNA1{[moe](T)[sp].[moe](G)[sp].[moe](T)p.[moe](T)p.[moe](A)[sp].d(A)[sp].d(T)[sp].d(A)[sp].d([m5C])[sp].d(T)[sp].d(T)[sp].d(T)[sp].d(T)[sp].d(T)[sp].d([m5C])[sp].[moe]([m5C])p.[moe](A)p.[moe](G)[sp].[moe]([m5C])}$$$$ (last 3' nucleoside missing) | 1
RNA1{[moe](G)[sp].[moe]([m5C])p.[moe](A)[sp].[moe]([m5C])[sp].[moe]([m5C])[sp].d(A)[sp].d(T)[sp].d(A)[sp].d(T)[sp].d(A)[sp].d(T)[sp].d(A)[sp].d(T)[sp].d([m5C])[sp].d(T)[sp].[moe]([m5C])[sp].[moe](A)p.[moe](G)[sp].[moe](A)}$$$$ (last 3' nucleoside missing) | 0
RNA1{[moe](T)[sp].[moe](G)[sp].[moe](G)p.[moe]([m5C])p.[moe](A)[sp].d([m5C])[sp].d(A)[sp].d(T)[sp].d(T)[sp].d(T)[sp].d(T)[sp].d(T)[sp].d(T)[sp].d(A)[sp].d(T)[sp].[moe](A)p.[moe](G)p.[moe](A)[sp].[moe](G)}$$$$ (last 3' nucleoside missing) | 3.25
RNA1{[moe](T)[sp].[moe](G)p.[moe](G)[sp].[moe]([m5C])[sp].[moe](A)[sp].d([m5C])[sp].d(A)[sp].d(T)[sp].d(T)[sp].d(T)[sp].d(T)[sp].d(T)[sp].d(T)[sp].d(A)[sp].d(T)[sp].[moe](A)[sp].[moe](G)p.[moe](A)[sp].[moe](G)}$$$$ (last 3' nucleoside missing) | 6
RNA1{[moe](T)[sp].[moe](G)p.[moe]([m5C])p.[moe](T)p.[moe]([m5C])p.d(A)[sp].d(T)[sp].d(T)[sp].d(T)[sp].d(A)[sp].d(T)[sp].d(T)[sp].d([m5C])[sp].d(T)[sp].d([m5C])[sp].[moe](A)p.[moe](A)p.[moe](G)[sp].[moe](T)}$$$$ (last 3' nucleoside missing) | 1
RNA1{[moe](T)[sp].[moe]([m5C])p.[moe](A)[sp].[moe]([m5C])[sp].[moe](A)[sp].d(A)[sp].d(T)[sp].d(G)[sp].d(A)[sp].d([m5C])[sp].d([m5C])[sp].d([m5C])[sp].d(T)[sp].d(T)[sp].d(T)[sp].[moe](T)[sp].[moe]([m5C])p.[moe](T)[sp].[moe](T)}$$$$ (last 3' nucleoside missing) | 1.25
RNA1{[moe](T)[sp].[moe](G)p.[moe](T)p.[moe](T)p.[moe]([m5C])[sp].d(A)[sp].d(T)[sp].d(A)[sp].d(T)[sp].d([m5C])[sp].d([m5C])[sp].d(T)[sp].d(T)[sp].d(T)[sp].d(A)[sp].[moe](A)p.[moe]([m5C])p.[moe]([m5C])[sp].[moe]([m5C])}$$$$ (last 3' nucleoside missing) | 0
RNA1{[moe]([m5C])[sp].[moe](A)p.[moe](A)p.[moe](T)p.[moe](A)[sp].d(T)[sp].d(T)[sp].d(T)[sp].d(A)[sp].d(T)[sp].d(A)[sp].d(G)[sp].d(G)[sp].d(T)[sp].d(G)[sp].[moe]([m5C])p.[moe](T)p.[moe](G)[sp].[moe]([m5C])}$$$$ (last 3' nucleoside missing) | 4.5
RNA1{[moe]([m5C])[sp].[moe](T)p.[moe](G)p.[moe]([m5C])p.[moe](A)[sp].d([m5C])[sp].d(A)[sp].d([m5C])[sp].d(T)[sp].d(T)[sp].d(T)[sp].d([m5C])[sp].d([m5C])[sp].d(T)[sp].d([m5C])[sp].[moe]([m5C])p.[moe](T)p.[moe]([m5C])[sp].[moe](A)}$$$$ (last 3' nucleoside missing) | 0
RNA1{[moe](G)[sp].[moe]([m5C])p.[moe]([m5C])p.[moe](A)p.[moe](A)p.d(T)[sp].d(A)[sp].d(T)[sp].d(T)[sp].d(T)[sp].d(A)[sp].d(T)[sp].d(A)[sp].d(G)[sp].d(G)[sp].[moe](T)p.[moe](G)p.[moe]([m5C])[sp].[moe](T)}$$$$ (last 3' nucleoside missing) | 1.5
RNA1{[moe](T)[sp].[moe](G)p.[moe](G)p.[moe]([m5C])p.[moe](A)p.[moe]([m5C])p.d(A)[sp].d(T)[sp].d(T)[sp].d(T)[sp].d(T)[sp].d(T)[sp].d(T)[sp].d(A)[sp].d(T)[sp].d(A)[sp].[moe](G)p.[moe](A)[sp].[moe](G)}$$$$ (last 3' nucleoside missing) | 2.75
RNA1{[moe](A)[sp].[moe](G)p.[moe]([m5C])p.[moe]([m5C])p.[moe](A)p.d(A)[sp].d(T)[sp].d(A)[sp].d(T)[sp].d(T)[sp].d(T)[sp].d(A)[sp].d(T)[sp].d(A)[sp].d(G)[sp].[moe](G)p.[moe](T)p.[moe](G)[sp].[moe]([m5C])}$$$$ (last 3' nucleoside missing) | 1
RNA1{[moe](A)[sp].[moe]([m5C])p.[moe](T)p.[moe](A)p.[moe]([m5C])[sp].d([m5C])[sp].d(T)[sp].d(T)[sp].d(G)[sp].d([m5C])[sp].d(A)[sp].d(T)[sp].d(A)[sp].d([m5C])[sp].d(T)[sp].[moe](T)p.[moe](A)p.[moe](G)[sp].[moe]([m5C])}$$$$ (last 3' nucleoside missing) | 1.12
RNA1{[moe](T)[sp].[moe](G)p.[moe]([m5C])p.[moe](T)p.[moe]([m5C])p.[moe](A)p.d(T)[sp].d(T)[sp].d(T)[sp].d(A)[sp].d(T)[sp].d(T)[sp].d([m5C])[sp].d(T)[sp].d([m5C])[sp].d(A)[sp].[moe](A)p.[moe](G)[sp].[moe](T)}$$$$ (last 3' nucleoside missing) | 0
RNA1{[moe](T)[sp].[moe](A)[sp].[moe](A)p.[moe](T)p.[moe](A)[sp].d([m5C])[sp].d(T)[sp].d(T)[sp].d(T)[sp].d(T)[sp].d(T)[sp].d([m5C])[sp].d([m5C])[sp].d(A)[sp].d(G)[sp].[moe]([m5C])p.[moe]([m5C])p.[moe](T)[sp].[moe](T)}$$$$ (last 3' nucleoside missing) | 1.5
RNA1{[moe](A)[sp].[moe](A)p.[moe](T)p.[moe](G)p.[moe]([m5C])p.d(A)[sp].d(T)[sp].d(A)[sp].d(T)[sp].d(T)[sp].d(G)[sp].d(G)[sp].d(T)[sp].d(T)[sp].d(T)[sp].[moe](T)p.[moe]([m5C])p.[moe](T)[sp].[moe]([m5C])}$$$$ (last 3' nucleoside missing) | 4
RNA1{[moe](G)[sp].[moe](T)p.[moe](G)p.[moe]([m5C])p.[moe](T)[sp].d(A)[sp].d(T)[sp].d(A)[sp].d(A)[sp].d(T)[sp].d(T)[sp].d([m5C])[sp].d(T)[sp].d(T)[sp].d(G)[sp].[moe]([m5C])p.[moe](T)p.[moe](T)[sp].[moe]([m5C])}$$$$ (last 3' nucleoside missing) | 1.25
RNA1{[moe](T)[sp].[moe](G)p.[moe]([m5C])p.[moe](T)p.[moe]([m5C])[sp].d(A)[sp].d(T)[sp].d(T)[sp].d(T)[sp].d(A)[sp].d(T)[sp].d(T)[sp].d([m5C])[sp].d(T)[sp].d([m5C])[sp].[moe](A)p.[moe](A)p.[moe](G)[sp].[moe](T)}$$$$ (last 3' nucleoside missing) | 0
RNA1{[moe](T)[sp].[moe](T)p.[moe](T)p.[moe]([m5C])p.[moe](A)p.d(T)[sp].d(G)[sp].d(T)[sp].d(T)[sp].d([m5C])[sp].d([m5C])[sp].d(A)[sp].d(G)[sp].d(A)[sp].d(T)[sp].[moe]([m5C])p.[moe](A)p.[moe]([m5C])[sp].[moe]([m5C])}$$$$ (last 3' nucleoside missing) | 1
